Active and inactive are the calls of the source.
Tests used:
Estrogen receptor = biological target: T1, Estrogen receptor (Homo sapiens, UniProt P03372);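 also: potency for inhibiting coactivator peptide recruitment to the receptor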
T1 sequence (P03372 whole entry): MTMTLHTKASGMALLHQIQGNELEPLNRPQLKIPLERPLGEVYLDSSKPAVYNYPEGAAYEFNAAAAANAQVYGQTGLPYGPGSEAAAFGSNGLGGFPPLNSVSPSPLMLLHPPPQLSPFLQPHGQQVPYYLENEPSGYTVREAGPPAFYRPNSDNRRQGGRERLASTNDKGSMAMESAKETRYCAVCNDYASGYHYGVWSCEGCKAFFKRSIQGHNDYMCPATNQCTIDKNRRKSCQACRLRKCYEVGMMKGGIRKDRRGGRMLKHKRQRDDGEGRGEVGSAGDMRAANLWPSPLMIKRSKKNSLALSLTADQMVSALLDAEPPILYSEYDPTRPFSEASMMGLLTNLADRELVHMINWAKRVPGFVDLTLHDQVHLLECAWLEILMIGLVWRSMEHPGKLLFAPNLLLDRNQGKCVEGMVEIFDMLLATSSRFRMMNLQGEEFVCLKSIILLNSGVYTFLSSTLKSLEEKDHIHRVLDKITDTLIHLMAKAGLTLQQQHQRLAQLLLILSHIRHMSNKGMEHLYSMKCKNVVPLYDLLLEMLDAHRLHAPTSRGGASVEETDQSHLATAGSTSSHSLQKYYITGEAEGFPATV

[1] = biological target: T2, RNA-binding protein pos-1 (Caenorhabditis elegans, UniProt G5EF15); experiment: inhibitors of POS-1/mex-3 RNA binding, dose response, biochemical, fluorescence polarization (AID 1964);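 also: purified POS-1 fused to maltose binding protein made in E. coli; potency of compounds blocking POS-1 binding to fluorescent RNA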
T2 sequence (G5EF15 whole entry): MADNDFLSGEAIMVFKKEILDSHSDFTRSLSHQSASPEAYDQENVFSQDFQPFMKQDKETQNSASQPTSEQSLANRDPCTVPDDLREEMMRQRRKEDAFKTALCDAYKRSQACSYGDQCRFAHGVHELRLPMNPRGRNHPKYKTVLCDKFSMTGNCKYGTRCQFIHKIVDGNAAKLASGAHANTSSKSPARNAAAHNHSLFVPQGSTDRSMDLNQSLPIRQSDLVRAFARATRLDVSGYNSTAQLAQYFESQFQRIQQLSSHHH

[2] = biological target: T3, Zinc finger protein mex-5 (Caenorhabditis elegans, UniProt Q9XUB2); experiment: MEX-5/TCR-2 RNA interaction inhibitors, dose response, biochemical, C. elegans, fluorescence polarization (AID 1960)
T3 sequence (Q9XUB2 whole entry): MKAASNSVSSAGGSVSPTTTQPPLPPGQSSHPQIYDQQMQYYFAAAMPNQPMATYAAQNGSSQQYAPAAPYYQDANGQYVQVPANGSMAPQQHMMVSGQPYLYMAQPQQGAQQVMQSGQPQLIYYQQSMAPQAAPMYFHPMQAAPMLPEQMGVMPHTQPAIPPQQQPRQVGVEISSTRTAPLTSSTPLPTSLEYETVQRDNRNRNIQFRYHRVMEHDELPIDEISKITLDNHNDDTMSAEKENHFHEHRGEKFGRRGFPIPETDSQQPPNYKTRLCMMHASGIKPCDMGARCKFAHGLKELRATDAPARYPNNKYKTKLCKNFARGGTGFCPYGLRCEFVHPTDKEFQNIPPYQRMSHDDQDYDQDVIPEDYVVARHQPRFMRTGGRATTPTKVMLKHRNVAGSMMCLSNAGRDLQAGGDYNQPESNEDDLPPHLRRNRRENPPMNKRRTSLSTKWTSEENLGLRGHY

[3] = inhibitors of intracellular T. cruzi replication, confirmation, NIH3T3 host cells, beta-gal luminescence (AID 2044); type: functional, cell-based;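 also: intracellular parasites grown in NIH/3T3 mouse fibroblasts as host cells; luminescent beta-galactosidase reporter signal from transgenic T. cruzi replicating inside host cells; inhibitors lower the luminescence signal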
[4] = cytotoxicity toward NIH3T3 fibroblasts, dose response, counter-screen, cell-based, ATP luminescence, mouse fibroblasts (AID 2010); type: functional;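 also: cells exposed to compound for about 90 hours before reading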
[5] = biological target: Induced myeloid leukemia cell differentiation protein Mcl-1 (Homo sapiens, UniProt Q07820); type: functional
Nonstructural protein 1 = Nonstructural protein 1 (Influenza A virus, UniProt Q194T2); type: functional, Influenza A virus (A/California/07/2009(H1N1))
BJ [6] = experiment: cytotoxicity toward BJ-TERT fibroblasts, dose response, cell-based, RAS-independent, luminescence (AID 1933); type: functional; conditions: Homo sapiens
BJ [7] = experiment: cells; type: functional, cell-based; conditions: Homo sapiens
BJ [8] = experiment: cytotoxicity toward BJ-TERT-LT-ST fibroblasts, dose response, cell-based, RAS-independent, luminescence (AID 1935); type: functional; conditions: Homo sapiens;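 also: BJ fibroblasts immortalized with TERT plus LT and ST oncogenes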
[9] = cytotoxicity toward DRD oncogenic fibroblasts, dose response, cell-based, non-viral oncogenic, luminescence (AID 1934); type: functional; conditions: Homo sapiens
[10] = cytotoxicity in HEK-293T cells, dose response, cytotoxicity control for TCR NF-kB inhibitor project, luminescence, T-cell screen hits (AID 489026); type: functional, cell-based;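 also: cells exposed to compound about 14 hours before the viability readout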
[11] = HEp-2 cell cytotoxicity, dose response, cytotoxicity control for RSV inhibitor project, HTS (AID 2410); type: functional; conditions: human respiratory syncytial virus
[12] = test system: Streptococcus sp. 'group A'; experiment: growth inhibition of control SK(-) GAS strain, dose response, counter-screen for streptokinase expression inhibitor project, luminescence, kanamycin, BacTiterGlo, confirmation (AID 1900); type: functional, organism-based
Streptokinase A = biological target: T4, Streptokinase A (Streptococcus pyogenes serotype M1, UniProt P10520); experiment: S. pyogenes streptokinase expression inhibitors, potency, dose response, plasminogen activation absorbance, OD405 (AID 1914); type: functional, Streptococcus pyogenes M1 GAS;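 also: secreted streptokinase activity via plasminogen activation per viability signal from cell pellet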
T4 sequence (P10520 whole entry): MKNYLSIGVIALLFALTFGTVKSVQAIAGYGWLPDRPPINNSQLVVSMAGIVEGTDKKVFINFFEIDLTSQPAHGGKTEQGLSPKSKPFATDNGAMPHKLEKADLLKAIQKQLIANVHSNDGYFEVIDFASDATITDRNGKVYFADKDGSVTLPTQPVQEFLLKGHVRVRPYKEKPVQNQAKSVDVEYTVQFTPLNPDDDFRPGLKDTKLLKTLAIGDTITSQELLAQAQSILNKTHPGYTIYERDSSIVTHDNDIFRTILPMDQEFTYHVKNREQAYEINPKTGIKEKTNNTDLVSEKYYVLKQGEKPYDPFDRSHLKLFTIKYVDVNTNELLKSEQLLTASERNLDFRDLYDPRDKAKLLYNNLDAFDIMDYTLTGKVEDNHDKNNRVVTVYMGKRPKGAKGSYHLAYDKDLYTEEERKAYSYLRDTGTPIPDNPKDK

Streptococcus = experiment: Group A Streptococcus viability loss, dose response, counter-screen for streptokinase expression inhibitor project, luminescence, BacTiterGlo (AID 1915); type: functional, organism-based;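 also: potency for reduction of bacterial viability or growth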
Cytochrome P450 3A4 = Cytochrome P450 3A4 (Homo sapiens, UniProt P08684);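 also: CYP3A4 tested as one member of a cytochrome P450 panel screen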
[13] = growth suppression of PTEN-null colon cells, dose response, cell-based, HCT116 PTEN knockout (AID 1047); type: functional;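 also: HCT116 colon tumor cells with PTEN knocked out; cells exposed to compound for 60 hours before readout; potency for loss of cell viability measured by luminescence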
[14] = growth suppression of beta-catenin-knockout colon cells, dose response, cell-based, HCT116, human colon tumor (AID 1045); type: functional;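 also: HCT116 colon tumor cells with beta catenin knocked out; cells exposed to compound for 60 hours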
[15] = biological target: T5, Replicative DNA helicase DnaB (Mycobacterium tuberculosis, UniProt P9WMR3); experiment: DnaB intein splicing inhibitors, dose response, biochemical, cell-free fluorescence (AID 449749); type: functional
T5 sequence (P9WMR3 whole entry): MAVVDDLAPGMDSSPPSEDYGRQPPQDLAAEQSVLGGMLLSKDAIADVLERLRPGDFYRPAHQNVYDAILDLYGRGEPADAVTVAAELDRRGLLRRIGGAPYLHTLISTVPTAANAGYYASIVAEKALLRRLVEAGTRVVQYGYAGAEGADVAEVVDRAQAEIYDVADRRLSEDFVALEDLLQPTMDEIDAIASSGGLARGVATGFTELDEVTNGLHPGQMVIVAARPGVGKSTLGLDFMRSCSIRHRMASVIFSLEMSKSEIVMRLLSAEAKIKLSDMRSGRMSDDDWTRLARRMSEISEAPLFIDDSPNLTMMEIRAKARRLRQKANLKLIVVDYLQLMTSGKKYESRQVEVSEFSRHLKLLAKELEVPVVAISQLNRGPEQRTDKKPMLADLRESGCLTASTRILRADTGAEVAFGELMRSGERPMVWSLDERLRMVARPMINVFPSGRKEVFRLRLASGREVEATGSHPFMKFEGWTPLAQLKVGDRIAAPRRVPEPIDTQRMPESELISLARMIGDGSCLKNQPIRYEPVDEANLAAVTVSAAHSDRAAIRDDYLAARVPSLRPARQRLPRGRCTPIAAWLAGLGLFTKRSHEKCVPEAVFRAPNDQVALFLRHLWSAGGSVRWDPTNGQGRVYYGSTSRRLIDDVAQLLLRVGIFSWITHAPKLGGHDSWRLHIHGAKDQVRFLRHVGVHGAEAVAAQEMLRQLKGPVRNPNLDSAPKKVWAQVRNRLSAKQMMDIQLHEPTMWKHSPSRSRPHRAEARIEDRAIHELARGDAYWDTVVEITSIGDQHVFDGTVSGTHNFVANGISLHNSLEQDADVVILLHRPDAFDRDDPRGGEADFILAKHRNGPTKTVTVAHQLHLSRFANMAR

Protein RecA = biological target: T6, Protein RecA (Mycobacterium tuberculosis, UniProt P9WHJ3); experiment: Fluorescence Cell-Free Homogeneous Dose Retest to Identify Inhibitors of RecA-Intein Splicing Activity. [Related pubchem assays (depositor defined):AID2097, AID2223, AID489010, AID492950]; type: functional
T6 sequence (P9WHJ3 whole entry): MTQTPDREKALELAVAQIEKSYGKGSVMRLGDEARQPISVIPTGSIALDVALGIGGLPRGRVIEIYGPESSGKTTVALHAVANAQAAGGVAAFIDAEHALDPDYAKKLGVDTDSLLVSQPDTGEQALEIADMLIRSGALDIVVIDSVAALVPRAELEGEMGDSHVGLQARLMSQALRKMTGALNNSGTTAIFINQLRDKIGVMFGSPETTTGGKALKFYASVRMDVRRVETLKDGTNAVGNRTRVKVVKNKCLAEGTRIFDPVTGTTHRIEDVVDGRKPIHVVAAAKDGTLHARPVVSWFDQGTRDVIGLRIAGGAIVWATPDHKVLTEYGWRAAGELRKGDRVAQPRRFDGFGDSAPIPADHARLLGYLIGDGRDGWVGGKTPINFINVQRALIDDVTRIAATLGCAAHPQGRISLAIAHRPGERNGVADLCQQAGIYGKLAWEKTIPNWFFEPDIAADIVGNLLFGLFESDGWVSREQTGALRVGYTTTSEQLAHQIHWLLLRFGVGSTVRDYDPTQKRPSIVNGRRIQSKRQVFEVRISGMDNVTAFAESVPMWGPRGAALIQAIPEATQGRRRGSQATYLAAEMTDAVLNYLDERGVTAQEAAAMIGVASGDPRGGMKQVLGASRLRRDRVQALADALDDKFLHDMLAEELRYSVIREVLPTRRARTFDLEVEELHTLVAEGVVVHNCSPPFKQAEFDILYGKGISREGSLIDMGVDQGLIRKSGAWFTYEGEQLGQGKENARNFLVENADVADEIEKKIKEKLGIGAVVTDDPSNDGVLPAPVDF

[16] = inhibitors of PGC1a acetylation in cells, dose response, cell-based, cherry-picked samples (AID 720514); type: functional;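 also: potency may reflect raised or lowered acetylation signal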
Cytochrome P450 2C19 = Cytochrome P450 2C19 (Homo sapiens, UniProt P33261); experiment: Cytochrome panel assay with activity outcomes. Panel member name: p450-cyp2c19 Compounds with AC50 equal or less than 10 uM are considered active; type: functional; conditions: read-out: AC50
Cytochrome P450 2C9 = Cytochrome P450 2C9 (Homo sapiens, UniProt P11712)
INS1 = experiment: beta cell apoptosis inhibitors, cytokine rescue, dose response, luminescence, retest (AID 449756); type: functional, cell-based; conditions: Rattus norvegicus;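 also: cell death triggered by IL-1 beta plus TNF-alpha plus IFN-gamma mixture; protective hits raise ATP signal compared with cytokine alone wells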

Nonstructural protein 1, sequence (Q194T2 whole entry): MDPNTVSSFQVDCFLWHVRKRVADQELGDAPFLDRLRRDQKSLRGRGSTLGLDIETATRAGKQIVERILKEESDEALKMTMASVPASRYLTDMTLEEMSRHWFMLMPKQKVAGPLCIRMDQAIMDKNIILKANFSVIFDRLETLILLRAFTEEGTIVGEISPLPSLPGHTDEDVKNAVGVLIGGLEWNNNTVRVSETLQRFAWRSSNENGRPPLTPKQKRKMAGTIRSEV
Cytochrome P450 3A4, sequence (P08684 whole entry): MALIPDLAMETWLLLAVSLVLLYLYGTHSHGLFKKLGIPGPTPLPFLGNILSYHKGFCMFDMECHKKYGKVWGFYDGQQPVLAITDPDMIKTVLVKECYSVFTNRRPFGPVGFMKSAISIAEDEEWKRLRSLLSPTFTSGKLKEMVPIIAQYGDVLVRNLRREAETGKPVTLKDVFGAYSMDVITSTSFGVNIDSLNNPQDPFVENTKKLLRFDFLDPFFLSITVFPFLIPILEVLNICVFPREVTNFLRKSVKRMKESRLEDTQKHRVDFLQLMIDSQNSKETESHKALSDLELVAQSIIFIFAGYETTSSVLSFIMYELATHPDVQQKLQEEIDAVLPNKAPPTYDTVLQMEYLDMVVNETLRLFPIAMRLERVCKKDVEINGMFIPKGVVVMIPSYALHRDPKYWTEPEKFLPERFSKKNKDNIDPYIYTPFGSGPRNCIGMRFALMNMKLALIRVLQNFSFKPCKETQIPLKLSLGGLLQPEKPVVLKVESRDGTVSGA
Induced myeloid leukemia cell differentiation protein Mcl-1, sequence (Q07820 whole entry): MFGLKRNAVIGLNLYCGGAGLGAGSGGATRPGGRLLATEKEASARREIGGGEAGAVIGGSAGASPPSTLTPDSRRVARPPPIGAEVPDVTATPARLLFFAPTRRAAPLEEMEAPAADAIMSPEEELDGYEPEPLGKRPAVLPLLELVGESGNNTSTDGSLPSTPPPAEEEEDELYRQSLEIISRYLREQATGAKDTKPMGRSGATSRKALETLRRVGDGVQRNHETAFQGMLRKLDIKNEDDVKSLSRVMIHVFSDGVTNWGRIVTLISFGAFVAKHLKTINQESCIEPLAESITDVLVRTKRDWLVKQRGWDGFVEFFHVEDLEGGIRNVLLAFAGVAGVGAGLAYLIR
Cytochrome P450 2C9, sequence (P11712 whole entry): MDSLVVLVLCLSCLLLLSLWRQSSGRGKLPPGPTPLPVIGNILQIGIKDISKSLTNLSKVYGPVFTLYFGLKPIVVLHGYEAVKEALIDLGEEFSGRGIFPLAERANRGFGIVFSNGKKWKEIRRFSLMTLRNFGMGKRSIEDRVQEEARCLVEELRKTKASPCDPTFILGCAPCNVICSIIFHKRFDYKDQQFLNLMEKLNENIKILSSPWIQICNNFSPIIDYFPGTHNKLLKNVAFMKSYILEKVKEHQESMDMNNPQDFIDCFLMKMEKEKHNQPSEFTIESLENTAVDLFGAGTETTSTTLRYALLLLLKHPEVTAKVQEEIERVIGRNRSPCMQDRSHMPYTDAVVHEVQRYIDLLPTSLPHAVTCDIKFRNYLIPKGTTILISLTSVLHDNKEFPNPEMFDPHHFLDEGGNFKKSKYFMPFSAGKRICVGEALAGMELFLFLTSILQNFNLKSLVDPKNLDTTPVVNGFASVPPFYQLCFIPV
Cytochrome P450 2C19, sequence (P33261 whole entry): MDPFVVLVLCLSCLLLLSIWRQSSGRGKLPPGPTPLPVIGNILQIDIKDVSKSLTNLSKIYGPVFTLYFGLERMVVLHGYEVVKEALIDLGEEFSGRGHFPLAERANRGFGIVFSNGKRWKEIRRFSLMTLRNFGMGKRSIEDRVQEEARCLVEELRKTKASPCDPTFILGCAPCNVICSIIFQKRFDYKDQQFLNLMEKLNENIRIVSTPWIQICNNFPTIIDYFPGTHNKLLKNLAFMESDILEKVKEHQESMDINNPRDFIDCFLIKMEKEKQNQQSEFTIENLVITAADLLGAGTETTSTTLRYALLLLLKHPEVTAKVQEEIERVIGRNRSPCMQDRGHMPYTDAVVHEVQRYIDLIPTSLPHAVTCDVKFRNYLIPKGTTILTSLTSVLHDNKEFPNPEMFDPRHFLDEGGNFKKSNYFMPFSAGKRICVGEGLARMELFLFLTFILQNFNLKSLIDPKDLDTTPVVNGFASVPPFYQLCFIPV

With COc1cccc2cc(-c3cn4ccc(C)cc4n3)c(=O)oc12 the IC50 (Estrogen receptor) was 7.85 µM (active).
In the case of N=c1c(C(=O)NCc2ccc(F)cc2)cc2c(=O)n3ccccc3nc2n1Cc1cccnc1, the EC50 [1] is reported as 31.2 µM (inconclusive), the EC50 [2] is reported as 46 µM (active) and the IC50 (Estrogen receptor) is reported as 7.04 µM (active). The EC50 [3] was 1.22 µM (active) and the EC50 [4] was > 60 µM (not active).
For O=C1NN(c2ccc(Cl)c(Cl)c2)C(=O)/C1=C/c1cccc(OC(=O)c2cccs2)c1, the IC50 (Estrogen receptor) was > 50 µM (not active) and the IC50 [5] was 3.81 µM (active).
For COc1cc(OC)c2c(-c3ccccc3)cc(=O)oc2c1C(CCN1CCCCC1)c1ccc(N(C)C)cc1 (stereo not given), the IC50 (Nonstructural protein 1) was 11.9 µM (active).
With CCOC(=O)c1[nH]c2c(c1C)C(=O)CC(c1ccco1)C2 (stereo not given) the EC50 (BJ [6]) was 0.334 µM (active), the EC50 (BJ [7]) was 0.594 µM (active) and the IC50 (Estrogen receptor) was 30.3 µM (not active). The EC50 (BJ [8]) was 0.354 µM (inconclusive), the EC50 [9] was 0.328 µM (active) and the IC50 [5] was 6.08 µM (active). The IC50 [10] was > 80 µM (inactive).
With O=C1NC(=S)N(C2CC2)C(=O)/C1=C/NNC(=O)c1ccccc1Cl the IC50 (Nonstructural protein 1) was 20.4 µM (active).
In the case of CC(C)(C)c1nnc(NC(=O)c2cc(-c3ccccc3)nc3ccccc23)s1, the CC50 [11] is reported as 14.1 µM (active), the EC50 [12] is reported as 9.69 µM (active) and the EC50 (Streptokinase A) is reported as > 150 µM (not active). The EC50 (Streptococcus) was 49.3 µM (active) and the AC50 (Cytochrome P450 3A4) was “inconclusive”.
With Cc1ccc(Cn2ncc(Cl)c(Cl)c2=O)cc1 the EC50 [13] was 10.5 µM (active), the EC50 [14] was 7.68 µM (active) and the AC50 [15] was 14.3 µM (active). For the same compound, the EC50 (Protein RecA) was 7.65 µM (active) and the AC50 [16] was 8.4 µM (active).
With O=C(c1ccc(Cl)cc1)N1CCN(c2cc(O)nnc2-c2ccccc2)CC1 the AC50 (Cytochrome P450 2C19) was 1.41 µM (inconclusive), the AC50 (Cytochrome P450 2C9) was 0.355 µM (inconclusive) and the AC50 (Cytochrome P450 3A4) was “inconclusive”.
With CCOc1ccccc1/C=c1\sc2nc(-c3ccco3)nn2c1=O the IC50 (Estrogen receptor) was > 50 µM (not active).
With Cc1ccc(C2C(/C=N/c3c(C)n(C)n(-c4ccccc4)c3=O)=C(c3ccccc3)Oc3ccccc32)cc1 (stereo not given) the IC50 (Nonstructural protein 1) was > 100 µM (active), the AC50 (Cytochrome P450 2C19) was 3.16 µM (inconclusive) and the AC50 (INS1) was 6.97 µM (active). The AC50 (Cytochrome P450 2C9) was 2.24 µM (inconclusive).

— ChEMBL document CHEMBL1201862, “PubChem BioAssay data set” (2004)
